The values that follow come from patent US6949542B2, “Dihydro-benzo[b][1,4]diazepin-2-one derivatives” (Hoffman-La Roche Inc., priority 2002, dated 2005).

The term melting point denotes the temperature of the solid-liquid transition. In turn, `CCOc1cc2c(cc1C(F)(F)F)NC(=O)CC(c1cccc(-c3ccnc(CC)c3)c1)=N2` [Example 159, 4-[3-(2-Ethyl-pyridin-4-yl)-phenyl]-7-ethoxy-8-trifluoromethyl-1,3-dihydro-benzo[b][1,4]diazepin-2-one] showed a melting point of 244 °C.

`Cc1cc2c(cc1Cl)NC(=O)CC(c1cccc(-c3ccc(C4CC4)nc3)c1)=N2` [Example 161, 8-Chloro-4-[3-(6-cyclopropyl-pyridin-3-yl)-phenyl]-7-methyl-1,3-dihydro-benzo[b][1,4]diazepin-2-one] displayed a melting point of 198 to 199 °C. In turn, `CCOc1ccc2c(c1)N=C(c1cccc(-c3cccnc3)c1)CC(=O)N2` [Example 162, 7-Ethoxy-4-(3-pyridin-3-yl-phenyl)-1,3-dihydro-benzo[b][1,4]diazepin-2-one] displayed a melting point of 166 to 169 °C. The molecule `CCOc1ccc2c(c1)N=C(c1cccc(-c3ccncc3)c1)CC(=O)N2` [Example 163, 7-Ethoxy-4-(3-pyridin-4-yl-phenyl)-1,3-dihydro-benzo[b][1,4]diazepin-2-one] registered a melting point of 180 to 185 °C. Molecule `O=C1CC(c2cccc(-c3ccccn3)c2)=Nc2ccc(C#Cc3ccccc3)cc2N1` [Example 164, 8-Phenylethynyl-4-(3-pyridin-2-yl-phenyl)-1,3-dihydro-benzo[b][1,4]diazepin-2-one] showed a melting point of 242 °C. As for `O=C1CC(c2cccc(-c3ccccn3)c2)=Nc2ccc(C#Cc3ccc(F)cc3)cc2N1` [Example 165, 8-(4-Fluoro-phenylethynyl)-4-(3-pyridin-2-yl-phenyl)-1,3-dihydro-benzo[b][1,4]diazepin-2-one], the figure is 249 °C; as for `O=C1CC(c2cccc(-c3ccc(C4CC4)nc3)c2)=Nc2cc(OCC(F)(F)F)c(C(F)(F)F)cc2N1` [Example 166, 4-[3-(6-Cyclopropyl-pyridin-3-yl)-phenyl]-7-(2,2,2-trifluoro-ethoxy)-8-trifluoromethyl-1,3-dihydro-benzo[b][1,4]diazepin-2-one], 213 to 214 °C; as for `Cc1cc2c(cc1C(F)(F)F)NC(=O)CC(c1cccc(-c3ccc(C4CC4)nc3)c1)=N2` [Example 167, 4-[3-(6-Cyclopropyl-pyridin-3-yl)-phenyl]-7-methyl-8-trifluoromethyl-1,3-dihydro-benzo[b][1,4]diazepin-2-one], 220 to 221 °C.

`COc1ccc(-c2cccc(C3=Nc4cc(C)c(C(F)(F)F)cc4NC(=O)C3)c2)cn1` [Example 168, 4-[3-(6-Methoxy-pyridin-3-yl)-phenyl]-7-methyl-8-trifluoromethyl-1,3-dihydro-benzo[b][1,4]diazepin-2-one] displayed a melting point of 219 to 224 °C. As for `COc1ccc(-c2cccc(C3=Nc4cc(OCC(F)(F)F)ccc4NC(=O)C3)c2)cn1` [Example 169, 4-[3-(6-Methoxy-pyridin-3-yl)-phenyl]-7-(2,2,2-trifluoro-ethoxy)-1,3-dihydro-benzo[b][1,4]diazepin-2-one], the figure is 186 °C; as for `COc1ccc(-c2cccc(C3=Nc4cc(OCC(F)(F)F)c(C(F)(F)F)cc4NC(=O)C3)c2)cn1` [Example 170, 4-[3-(6-Methoxy-pyridin-3-yl)-phenyl]-7-(2,2,2-trifluoro-ethoxy)-8-trifluoromethyl-1,3-dihydro-benzo[b][1,4]diazepin-2-one], 220 to 225 °C.

In turn, `O=C1CC(c2cccc(-c3cccnc3)c2)=Nc2ccc(C#Cc3ccc(F)cc3)cc2N1` [Example 174, 8-(4-Fluoro-phenylethynyl)-4-(3-pyridin-3-yl-phenyl)-1,3-dihydro-benzo[b][1,4]diazepin-2-one] showed a melting point of 228 to 230 °C. As for `O=C1CC(c2cccc(-c3cccnc3)c2)=Nc2ccc(C#Cc3ccccc3)cc2N1` [Example 175, 8-Phenylethynyl-4-(3-pyridin-3-yl-phenyl)-1,3-dihydro-benzo[b][1,4]diazepin-2-one], the figure is 241 °C; as for `O=C1CC(c2cccc(-c3ccc(C4CC4)nc3)c2)=Nc2cc(OCC(F)(F)F)ccc2N1` [Example 176, 4-[3-(6-Cyclopropyl-pyridin-3-yl)-phenyl]-7-(2,2,2-trifluoro-ethoxy)-1,3-dihydro-benzo[b][1,4]diazepin-2-one], 178 to 180 °C.

For `CC(C)c1ccc(-c2cccc(C3=Nc4ccc(C(F)(F)F)cc4NC(=O)C3)c2)cn1` [Example 177, 4-[3-(6-Isopropyl-pyridin-3-yl)-phenyl]-8-trifluoromethyl-1,3-dihydro-benzo[b][1,4]diazepin-2-one], the melting point was determined as 194 °C. As for `CC(C)c1ccc(-c2cccc(C3=Nc4cc(OCC(F)(F)F)c(C(F)(F)F)cc4NC(=O)C3)c2)cn1` [Example 178, 4-[3-(6-Isopropyl-pyridin-3-yl)-phenyl]-7-(2,2,2-trifluoro-ethoxy)-8-trifluoromethyl-1,3-dihydro-benzo[b][1,4]diazepin-2-one], the melting point was determined as 197 °C. Molecule `Cc1cc2c(cc1Cl)NC(=O)CC(c1cccc(-c3ccc(C(C)C)nc3)c1)=N2` [Example 179, 8-Chloro-4-[3-(6-isopropyl-pyridin-3-yl)-phenyl]-7-methyl-1,3-dihydro-benzo[b][1,4]diazepin-2-one] displayed a melting point of 190 °C. Regarding `Cc1cc2c(cc1C(F)(F)F)NC(=O)CC(c1cccc(-c3ccc(C(C)C)nc3)c1)=N2` [Example 180, 4-[3-(6-Isopropyl-pyridin-3-yl)-phenyl]-7-methyl-8-trifluoromethyl-1,3-dihydro-benzo[b][1,4]diazepin-2-one], the melting point was 199 °C. As for `CCOc1cc2c(cc1Cl)NC(=O)CC(c1cccc(-c3cccnc3)c1)=N2` [Example 181, 8-Chloro-7-ethoxy-4-(3-pyridin-3-yl-phenyl)-1,3-dihydro-benzo[b][1,4]diazepin-2-one], the figure is 210 °C. As for `CCOc1cc2c(cc1Cl)NC(=O)CC(c1cccc(-c3ccnc(C)c3)c1)=N2` [Example 182, 8-Chloro-7-ethoxy-4-[3-(2-methyl-pyridin-4-yl)-phenyl]-1,3-dihydro-benzo[b][1,4]diazepin-2-one], the figure is 185 °C; as for `O=C1CC(c2cccc(-c3cccnc3)c2)=Nc2cc(Cl)c(C(F)(F)F)cc2N1` [Example 183, 7-Chloro-4-(3-pyridin-3-yl-phenyl)-8-trifluoromethyl-1,3-dihydro-benzo[b][1,4]diazepin-2-one], 226 to 227 °C; as for `O=C1CC(c2cccc(-c3cccnc3)c2)=Nc2ccc(OC(F)(F)F)cc2N1` [Example 185, 4-(3-Pyridin-3-yl-phenyl)-8-trifluoromethoxy-1,3-dihydro-benzo[b][1,4]diazepin-2-one], 207 °C. `O=C1CC(c2cccc(-c3cccnc3)c2)=Nc2cc(N3CCCC3)c(C(F)(F)F)cc2N1` [Example 187, 4-(3-Pyridin-3-yl-phenyl)-7-pyrrolidin-1-yl-8-trifluoromethyl-1,3-dihydro-benzo[b][1,4]diazepin-2-one] displayed a melting point of 219 to 221 °C. With `O=C1CC(c2cccc(-c3cccnc3)c2)=Nc2cc(N3CCOCC3)c(C(F)(F)F)cc2N1` [Example 188, 7-Morpholin-4-yl-4-(3-pyridin-3-yl-phenyl)-8-trifluoromethyl-1,3-dihydro-benzo[b][1,4]diazepin-2-one], the melting point lay within 198 to 201 °C. As for `CCc1ccc(-c2cccc(C3=Nc4cc(C)c(Cl)cc4NC(=O)C3)c2)cn1` [Example 189, 8-Chloro-4-[3-(6-ethyl-pyridin-3-yl)-phenyl]-7-methyl-1,3-dihydro-benzo[b][1,4]diazepin-2-one], the figure is 182 to 185 °C; as for `CCOc1cc2c(cc1C(F)(F)F)NC(=O)CC(c1cccc(-c3ccc(CC)nc3)c1)=N2` [Example 190, 7-Ethoxy-4-[3-(6-ethyl-pyridin-3-yl)-phenyl]-8-trifluoromethyl-1,3-dihydro-benzo[b][1,4]diazepin-2-one], 218 to 219 °C. The molecule `CCc1ccc(-c2cccc(C3=Nc4ccc(C(F)(F)F)cc4NC(=O)C3)c2)cn1` [Example 191, 4-[3-(6-Ethyl-pyridin-3-yl)-phenyl]-8-trifluoromethyl-1,3-dihydro-benzo[b][1,4]diazepin-2-one] had a melting point of 211 °C. As for `CCc1ccc(-c2cccc(C3=Nc4cc(OCC(F)(F)F)c(C(F)(F)F)cc4NC(=O)C3)c2)cn1` [Example 193, 4-[3-(6-Ethyl-pyridin-3-yl)-phenyl]-7-(2,2,2-trifluoro-ethoxy)-8-trifluoromethyl-1,3-dihydro-benzo[b][1,4]diazepin-2-one], the figure is 191 °C; as for `O=C1CC(c2cccc(-c3cccnc3)c2)=Nc2cc(OCC3CC3)c(C(F)(F)F)cc2N1` [Example 194, 7-Cyclopropylmethoxy-4-(3-pyridin-3-yl-phenyl)-8-trifluoromethyl-1,3-dihydro-benzo[b][1,4]diazepin-2-one], 197 °C; as for `O=C1CC(c2cccc(-c3ccc(C4CC4)nc3)c2)=Nc2cc(OCC3CC3)c(C(F)(F)F)cc2N1` [Example 196, 7-Cyclopropylmethoxy-4-[3-(6-cyclopropyl-pyridin-3-yl)-phenyl]-8-trifluoromethyl-1,3-dihydro-benzo[b][1,4]diazepin-2-one], 223 °C. As for `Cc1cc2c(cc1C(F)(F)F)NC(=O)CC(c1cccc(-c3ccnc(C#N)c3)c1)=N2` [Example 199, 4-[3-(8-Methyl-4-oxo-7-trifluoromethyl-4,5-dihydro-3H-benzo[b][1,4]diazepin-2-yl)-phenyl]-pyridine-2-carbonitrile], the melting point lay within 205 to 211 °C. As for `O=C1CC(c2cccc(-c3cccnc3)c2)=Nc2cc(OCC(F)(F)F)c(Cl)cc2N1` [Example 202, 8-Chloro-4-(3-pyridin-3-yl-phenyl)-7-(2,2,2-trifluoro-ethoxy)-1,3-dihydro-benzo[b][1,4]diazepin-2-one], the figure is 203 to 204 °C; as for `N#Cc1cc(-c2cccc(C3=Nc4cc(OCC(F)(F)F)c(Cl)cc4NC(=O)C3)c2)ccn1` [Example 203, 4-{3-[7-Chloro-4-oxo-8-(2,2,2-trifluoro-ethoxy)-4,5-dihydro-3H-benzo[b][1,4]diazepin-2-yl]-phenyl}-pyridine-2-carbonitrile], 224 to 225 °C.
